Numbers after ± are expanded uncertainties.
Assay: activity coefficient (dimensionless); of the first substance listed, at infinite dilution; xn = mol fraction of the nth substance listed
Details: 101 kPa, Liquid, Chromatography, x1 = 0

SMILES	activity coefficient (308.15 K)	activity coefficient (318.15 K)	activity coefficient (328.15 K)	activity coefficient (338.15 K)	activity coefficient (348.15 K)	activity coefficient (358.15 K)	activity coefficient (368.15 K)	activity coefficient (298.15 K)
Cc1ccccc1C [1,2-dimethylbenzene] + CC[S+](CC)CC.O=S(=O)([N-]S(=O)(=O)C(F)(F)F)C(F)(F)F	2.05 ± 0.14	2.07 ± 0.14	2.09 ± 0.14	2.1 ± 0.14	2.12 ± 0.14	2.13 ± 0.14	2.15 ± 0.15	
Cc1cccc(C)c1 [1,3-dimethylbenzene] + CC[S+](CC)CC.O=S(=O)([N-]S(=O)(=O)C(F)(F)F)C(F)(F)F	2.29 ± 0.16	2.31 ± 0.16	2.33 ± 0.16	2.34 ± 0.16	2.36 ± 0.16	2.38 ± 0.16	2.39 ± 0.16	
Cc1ccc(C)cc1 [1,4-dimethylbenzene] + CC[S+](CC)CC.O=S(=O)([N-]S(=O)(=O)C(F)(F)F)C(F)(F)F	2.27 ± 0.15	2.3 ± 0.16	2.32 ± 0.16	2.34 ± 0.16	2.36 ± 0.16	2.38 ± 0.16	2.4 ± 0.16	
C=CCCCCC [1-heptene] + CC[S+](CC)CC.O=S(=O)([N-]S(=O)(=O)C(F)(F)F)C(F)(F)F	17.2 ± 1.2	16.1 ± 1.1	15.2 ± 1	14.4 ± 1	13.7 ± 0.9	12.9 ± 0.9	12.4 ± 0.8	18.3 ± 1.3
C#CCCCCC [1-heptyne] + CC[S+](CC)CC.O=S(=O)([N-]S(=O)(=O)C(F)(F)F)C(F)(F)F	5.28 ± 0.36	5.21 ± 0.36	5.14 ± 0.35	5.08 ± 0.35	5.04 ± 0.34	4.98 ± 0.34	4.93 ± 0.34	5.34 ± 0.36
C#CCCCC [1-hexyne] + CC[S+](CC)CC.O=S(=O)([N-]S(=O)(=O)C(F)(F)F)C(F)(F)F	3.62 ± 0.25	3.6 ± 0.25	3.58 ± 0.24	3.57 ± 0.24	3.56 ± 0.24	3.54 ± 0.24	3.53 ± 0.24	3.63 ± 0.25
C#CCCCCCC [1-octyne] + CC[S+](CC)CC.O=S(=O)([N-]S(=O)(=O)C(F)(F)F)C(F)(F)F	7.68 ± 0.52	7.51 ± 0.51	7.35 ± 0.5	7.2 ± 0.49	7.06 ± 0.48	6.93 ± 0.47	6.81 ± 0.46	7.87 ± 0.54
C=CCCC [1-pentene] + CC[S+](CC)CC.O=S(=O)([N-]S(=O)(=O)C(F)(F)F)C(F)(F)F	8.41 ± 0.57	8.06 ± 0.55	7.72 ± 0.53	7.4 ± 0.5	7.17 ± 0.49	6.89 ± 0.47	6.69 ± 0.46	8.81 ± 0.6
C#CCCC [1-pentyne] + CC[S+](CC)CC.O=S(=O)([N-]S(=O)(=O)C(F)(F)F)C(F)(F)F	2.52 ± 0.17	2.53 ± 0.17	2.54 ± 0.17	2.54 ± 0.17	2.55 ± 0.17	2.55 ± 0.17	2.55 ± 0.17	2.52 ± 0.17
COC(C)(C)C [2-methoxy-2-methylpropane] + CC[S+](CC)CC.O=S(=O)([N-]S(=O)(=O)C(F)(F)F)C(F)(F)F	2.94 ± 0.2	2.96 ± 0.2	2.98 ± 0.2	3 ± 0.2	3.02 ± 0.21	3.03 ± 0.21	3.05 ± 0.21	2.92 ± 0.2
c1ccccc1 [benzene] + CC[S+](CC)CC.O=S(=O)([N-]S(=O)(=O)C(F)(F)F)C(F)(F)F	1.1 ± 0.07	1.11 ± 0.07	1.12 ± 0.07	1.13 ± 0.07	1.13 ± 0.07	1.14 ± 0.07	1.15 ± 0.07	1.08 ± 0.07
CCCCO [butan-1-ol] + CC[S+](CC)CC.O=S(=O)([N-]S(=O)(=O)C(F)(F)F)C(F)(F)F	3.32 ± 0.23	2.96 ± 0.2	2.66 ± 0.18	2.41 ± 0.16	2.2 ± 0.15	2 ± 0.14	1.84 ± 0.12	
C1CCCCCC1 [cycloheptane] + CC[S+](CC)CC.O=S(=O)([N-]S(=O)(=O)C(F)(F)F)C(F)(F)F	19.8 ± 1.4	18 ± 1.2	16.5 ± 1.1	15.2 ± 1	14.1 ± 1	13.1 ± 0.9	12.2 ± 0.8	21.7 ± 1.5
C1CCCCC1 [cyclohexane] + CC[S+](CC)CC.O=S(=O)([N-]S(=O)(=O)C(F)(F)F)C(F)(F)F	14.7 ± 1	13.5 ± 0.9	12.4 ± 0.8	11.6 ± 0.8	10.7 ± 0.7	10 ± 0.7	9.43 ± 0.64	16.1 ± 1.1

Source: the NIST ThermoML archive (doi:10.1016/j.jct.2008.12.005)
